In patent US10646595B2, “Porphyrin compounds and their use as MRI contrast agents” (THE GOVERNING COUNCIL OF THE UNIVERSITY OF TORONTO, priority 2013, dated 2020):
Where two headings read alike, the source gives them in different places.

Legend:
[1] = Urine sample analysis by UV-vis and Mn atomic absorption after injection in rats; assay type: in vivo; details: 0.05 mmol Mn/kg i.v.
Source text: (§1) MnPs MnTCP and (MnTPPS3)2 were administrated in rats and submitted for MRI studies on a 3T clinical scanner (Philips Achieva), with MnTPPS as a reference, and found to be efficient T1 CAs for in vivo applications, MnTCP and (MnTPPS3)2. A relatively low dose, 0.05 mmol Mn/kg (typical dose for clinical Gd-based CAs is ˜0.1 mmol Gd/kg) was chosen based on the in vitro relaxivity values described above.
(§2) The desired rapid clearance of MnTCP via renal filtration was further confirmed by urine sample analysis. The characteristic reddish color of MnPs was clearly visible by eye in the urine samples. The concentrations of MnPs can be accurately quantified by both UV-vis and Mn atomic absorption (Mn AA) spectroscopic analyses. Very high concentrations of MnP were detected in urine 60 minutes (11.7 μM) after injection. […] Moreover, a significant amount of MnTPPS (1.12 μM) could still be detected in urine 24 hours post-injection. […] The exclusion of the renal metabolic pathway for (MnTPPS3)2 was further confirmed by urine sample analysis.

[2] = NMRD profiles, field-dependent T1 relaxivity, field cycling NMR relaxometer 0 to 1 T; assay type: physicochemical; details: for T1 relaxivity per Mn(III) or Gd(III), NMRD comparison: fields above ~0.2 T, compared among MnTPPS, MnTCP, (MnTPPS3)2 and Gd-DTPA
Description: T1 relaxivity values were measured per Mn(III) or Gd(III) up to 1 T.

[3] = In vivo T1-weighted MRI in rats on 3T clinical scanner after intravenous injection; details: 0.05 mmol Mn/kg i.v.
Source text: as §1, §2

[4] = T1 and T2 relaxivities and phantom images at 3 T on clinical MRI scanner; assay type: physicochemical; details: for r1 (T1 relaxivity): clinical MRI scanner, inversion-recovery spin-echo, 25° C. per FIG. 3
Description: (A) A schematic diagram of how the solutions are placed. (B) The corresponding phantom images produced by the 3 T scanner.
Relaxivities of MnPs at 3 T were measured on a clinical MRI scanner (Philips Achieva). Each of the four CAs were prepared in a series of increasing concentrations, 0, 0.05, 0.1, 0.2 and 0.5 mM, and imaged using an inversion-recovery spin-echo pulse sequence with varied inversion times TI and a multi-echo spin-echo sequence with varied echo times TE. […] The r1 values in Table 1 were derived by calculating T1 relaxation times from the inversion-recovery images and then linearly fitting the T1 relaxation rates to obtain the relaxivity r1. T2 relaxivities of the MnPs were also calculated and are listed in […]

[5] = 37° C., cited from earlier work

O=S(=O)([O-])c1ccc(C2=C3C=CC4=[N+]3[Mn]35[n]6c2ccc6C(c2ccc(S(=O)(=O)[O-])cc2)=C2C=CC(=[N+]23)C(c2ccc(S(=O)(=O)[O-])cc2)=c2ccc([n]25)=C4c2ccc(-c3ccc(C4=C5C=CC6=[N+]5[Mn]57[n]8c4ccc8C(c4ccc(S(=O)(=O)[O-])cc4)=C4C=CC(=[N+]45)C(c4ccc(S(=O)(=O)[O-])cc4)=c4ccc([n]47)=C6c4ccc(S(=O)(=O)[O-])cc4)cc3)cc2)cc1 (centres unmarked) [(MnTPPS3)2]
MnP signal in urine by Mn-AA or UV-vis ([1]; over the 72 hour post-injection period): No MnP signal was found | field of relaxivity peak ([2]; NMRD profile): ~1 T | T1 relaxivity per Mn(III) or Gd(III), NMRD comparison [2]: highest relaxivity per Mn | enhancement in the blood vessels and in the heart ([3]; 3 T MRI): relatively long-lasting enhancement | liver enhancement ([3]; 3 T MRI): significant liver enhancement | bladder enhancement ([3]; over the three days of the experimental period): no bladder enhancement was detected | signal intensity on T1 weighted phantom images ([4]; 25° C., samples at the same concentration): highest signal intensity | r1 (T1 relaxivity) [4]: 14.1 mM⁻¹ s⁻¹

MnTPPS [reference compound]
concentration in urine ([1]; 60 minutes after injection): 4.41 µM | concentration in urine ([1]; 24 hours post-injection): 1.12 µM | relaxivity plateau ([5]; up to 1 T): > 10 mM⁻¹ s⁻¹ | field of relaxivity peak [5]: 0.2 T | liver enhancement ([3]; 3 T MRI): clear liver enhancement | persistence of kidney T1 enhancement signal ([3]; 3 T MRI): still visible in the image 1 day post-injection | r1 (T1 relaxivity) [4]: 8.83 mM⁻¹ s⁻¹

O=C(O)c1c2nc(c(C(=O)O)c3ccc([n-]3)c(C(=O)O)c3nc(c(C(=O)O)c4ccc1[n-]4)C=C3)C=C2.[Cl-].[Mn+3] [MnTCP, [5,10,15,20-tetrakis(carboxy)porphyrinato]manganese(III) Chloride]
concentration in urine ([1]; 60 minutes after injection): 11.7 µM | presence in urine sample ([1]; about 24 h post injection): Absence | T1 relaxivity, NMRD comparison ([2]; at clinical field strengths): lower relaxivity than MnTPPS | T1 relaxivity per Mn(III) or Gd(III), NMRD comparison [2]: substantially higher than Gd-DTPA | time for relocation of majority of kidney enhancement into the bladder ([3]; 3 T MRI): within an hour | time to accumulation in the kidney ([3]; post injection, 3 T MRI): ≤ 10 min | relaxivity compared with Gd-DTPA [4]: significantly higher relaxivity than Gd-DTPA | r1 (T1 relaxivity) [4]: 7.90 mM⁻¹ s⁻¹
